# Experiments:
# [1] = system: non-tumor bearing balb c nu/nu male mice; assay: Kidney and pancreas toxicity of 177Lu-NeoBOMB1 treatment; type: in vivo; conditions: for histopathology of the kidneys: 24 weeks after therapy
# Procedure: To determine the effect of treatment on pancreas and kidney tissue, non-tumor bearing balb c nu/nu male mice received the same treatment as the animals included in the efficacy study. At 2 different time points after the last therapeutic injection (12 weeks and 24 weeks p.i.) animals were euthanized and pancreas and kidney tissue was collected for pathological analysis.
# (§1) In both studies, animal weight and/or tumor size was measured bi-weekly. When tumor size was ≥2000 mm^3 or a decrease in animal weight ≥20% within 48 hours was observed, animals were removed from the study. In the efficacy study, animals were followed until the maximum allowed age of 230 days was reached.
# Pancreatic and kidney tissue collected for pathological analysis was formalin fixed and paraffin embedded. Hematoxylin and eosin staining was performed on […] thick tissue slices using the Ventana Symphony™ H&E protocol (Ventana), to determine differences in tissue structure between the 4 treatment groups. In total 4 tissue slices, […] apart from each other were evaluated of each organ. The hematoxylin and eosin staining's were evaluated by experienced pathologists.
# PC-3 cells = assay: Therapeutic efficacy of 177Lu-NeoBOMB1 in PC-3 xenografted mice; type: in vivo, balb c nu/nu mice; conditions: for time to reach a tumor size of 2000 mm^3: 1 week apart, extrapolated growth curves; for animals without any tumor regrowth after a complete response: n=15
# Procedure: Male balb c nu/nu mice were subcutaneously inoculated on the right shoulder with 200 μL 4×10^6 PC-3 cells (American Type Culture Collection) in inoculation medium (⅓ Matrigel high concentration (Corning)+⅔ Hank's balanced salt solution (Thermofisher Scientific)). Four weeks post tumor cell inoculation when an average tumor size of 543+177 mm^3 was reached, animals were divided in four groups: control group (n=10) and therapy group 1-3 (n=15 per group). To determine the efficacy of ^177Lu-NeoBOMB1, animals received either 3 sham injections (control group), 3×30 MBq/300 pmol ^177Lu-NeoBOMB1 (group 1), 3×40 MBq/400 pmol ^177Lu-NeoBOMB1 (group 2) or 3×60 MBq/600 pmol ^177Lu-NeoBOMB1 (group 3) under isoflurane/O2 anesthesia. Injections were administered intravenously and injections were given 1 week apart.
# as §1
# The tumor doubling times were determined by fitting an exponential growth function to the tumor volume over time in the control group. In the therapy groups an interval with exponential tumor volume decline was fitted with onset of regrowth after the nadir time. The growth curves were extrapolated beyond the censoring time points for mice with too large tumors (>2000 mm^3) to determine average growth statistics. Tumor growth delay times were individually determined by comparing the times needed to reach the maximum tumor size of 2000 mm^3 with the mean time found in the control group.
# Prism software (version 5.01, GraphPad Software) was used for statistical analyses. P values […] were considered statistically significant. The difference in tumor volume growths and delay times for the 4 groups were analyzed with the One-way ANOVA test with Bonferroni's multiple comparison test. Curve fitting was performed according to the least/square fit with the Pearson R^2 to quantify its goodness.
# [2] = Dosimetry: estimated absorbed dose to tumor, pancreas and kidneys (RADAR realistic mouse model)
# Text: The RADAR realistic mouse model (Keenan M A, Stabin M G, Segars W P, Fernald M J. RADAR realistic animal model series for dose assessment. J Nucl Med. 2010; 51:471-476) with a weight of 25 g and data from previously published biodistribution and pharmacokinetic studies (Dalm S U, Bakker I L, de Blois E, et al. 68Ga/^177Lu-NeoBOMB1, a Novel Radiolabeled GRPR Antagonist for Theranostic Use in Oncology. J Nucl Med. 2017; 58:293-299) were used to calculate the dose to the tumor, pancreas and kidneys, when animals were treated with 3×30 MBq/300 pmol, […] or 3×60 MBq/600 pmol ^177Lu-NeoBOMB1. The biodistribution data of our previously published paper (Dalm S U, Bakker I L, de Blois E, et al. ^68Ga/^177Lu-NeoBOMB1, a Novel Radiolabeled GRPR Antagonist for Theranostic Use in Oncology. J Nucl Med. 2017; 58:293-299) were fitted with exponential curves to define the time-activity curve in the tumor and organs. The time integrated activities for ^177Lu were obtained by integrating these exponential curves folded with the 177Lu decay curve (T1/2=6.647 d). Absorbed doses per administered activities were obtained by multiplying with the organ S-values from Keenan et al. (Keenan M A, Stabin M G, Segars W P, Fernald M J. RADAR realistic animal model series for dose assessment. J Nucl Med. 2010; 51:471-476) or by using the spherical node S-values (Stabin M G, Konijnenberg M W. Re-evaluation of absorbed fractions for photons and electrons in spheres of various sizes. J Nucl Med. 2000; 41:149-160) for a 340 mg tumor.
# An estimation was made of the radioactivity dose to the tumor, pancreas and kidneys after treatment with 3×30 MBq/300 pmol, 3×40 MBq/400 pmol or 3×60 MBq/600 pmol ^177Lu-NeoBOMB1 (See Table 3 below). For this it was assumed that tumor and organ uptake was similar after each injection.
# [3] = 3×30 MBq/300 pmol, 1st injection
# [4] = 3×30 MBq/300 pmol, 2nd injection
# [5] = 3×30 MBq/300 pmol, 3rd injection
# [6] = 3×40 MBq/400 pmol, 1st injection
# [7] = 3×40 MBq/400 pmol, 2nd injection
# [8] = 3×40 MBq/400 pmol, 3rd injection
# [9] = 3×60 MBq/600 pmol, 1st injection
# [10] = 3×60 MBq/600 pmol, 2nd injection
# [11] = 3×60 MBq/600 pmol, 3rd injection
smiles,measurement,setting,value
"CC(C)CC(CC(C)C)NC(=O)[C@H](Cc1cnc[nH]1)NC(=O)CNC(=O)[C@@H](NC(=O)[C@H](C)NC(=O)[C@H](Cc1c[nH]c2ccccc12)NC(=O)[C@H](CCC(N)=O)NC(=O)[C@@H](Cc1ccccc1)NC(=O)COCC(=O)Nc1ccc(CNC(=O)CN2CCN(CC(=O)O)CCN(CC(=O)O)CCN(CC(=O)O)CC2)cc1)C(C)C [^177Lu-NeoBOMB1, metal not drawn]","histopathology of the kidneys, lymphocyte infiltration","[1]; 12 and 24 weeks after last injection, in control as well as treated animals, not related to therapy",small areas with lymphocyte infiltration
same,histopathology of the pancreas,"[1]; H&E, 12 and 24 weeks after last injection",no tissue damage or other abnormalities
same,animal weight,"[1]; all groups, follow-up up to 24 weeks",no critical decrease in weight
same,histopathology of the kidneys,"[1]; group 3 (3×60 MBq/600 pmol), both animals",mild chronic inflammatory response
same,histopathology of the kidneys,"[1]; lowest dose (3×30 MBq/300 pmol), ID: 864, unlikely related to therapy",atrophy and fibrosis were observed in the kidneys of only one animal
same,decrease in weight within 48 h,[1]; one animal from Group 1 (ID: 869),less than 10%
same,therapy efficacy,PC-3 cells; all treatment groups vs control group,effective
same,Median survival,"PC-3 cells; group 1, 3×30 MBq/300 pmol",82 days
same,time to reach a tumor size of 2000 mm^3,"PC-3 cells; group 1, 3×30 MBq/300 pmol i.v.",97 ± 59 days
same,animals without any tumor regrowth after a complete response,"PC-3 cells; group 1, 3×30 MBq/300 pmol",two
same,Median survival,"PC-3 cells; group 2, 3×40 MBq/400 pmol",89 days
same,time to reach a tumor size of 2000 mm^3,"PC-3 cells; group 2, 3×40 MBq/400 pmol i.v.",103 ± 66 days
same,animals without any tumor regrowth after a complete response,"PC-3 cells; group 2, 3×40 MBq/400 pmol",one
same,Median survival,"PC-3 cells; group 3, 3×60 MBq/600 pmol",99 days
same,time to reach a tumor size of 2000 mm^3,"PC-3 cells; group 3, 3×60 MBq/600 pmol i.v.",95 ± 26 days
same,"Cumulative absorbed dose, Kidney",[2]; [3],1.7 Gy
same,"Cumulative absorbed dose, Pancreas",[2]; [3],7.9 Gy
same,"Cumulative absorbed dose, Tumor",[2]; [3],17 Gy
same,"Cumulative absorbed dose, Kidney",[2]; [4],3.4 Gy
same,"Cumulative absorbed dose, Pancreas",[2]; [4],16 Gy
same,"Cumulative absorbed dose, Tumor",[2]; [4],34 Gy
same,"Cumulative absorbed dose, Kidney",[2]; [5],5.1 Gy
same,"Cumulative absorbed dose, Pancreas",[2]; [5],32 Gy
same,"Cumulative absorbed dose, Tumor",[2]; [5],68 Gy
same,"Cumulative absorbed dose, Kidney",[2]; [6],2.3 Gy
same,"Cumulative absorbed dose, Pancreas",[2]; [6],11 Gy
same,"Cumulative absorbed dose, Tumor",[2]; [6],23 Gy
same,"Cumulative absorbed dose, Kidney",[2]; [7],4.5 Gy
same,"Cumulative absorbed dose, Pancreas",[2]; [7],21 Gy
same,"Cumulative absorbed dose, Tumor",[2]; [7],46 Gy
same,"Cumulative absorbed dose, Kidney",[2]; [8],6.8 Gy
same,"Cumulative absorbed dose, Pancreas",[2]; [8],42 Gy
same,"Cumulative absorbed dose, Tumor",[2]; [8],91 Gy
same,"Cumulative absorbed dose, Kidney",[2]; [9],3.4 Gy
same,"Cumulative absorbed dose, Pancreas",[2]; [9],16 Gy
same,"Cumulative absorbed dose, Tumor",[2]; [9],34 Gy
same,"Cumulative absorbed dose, Kidney",[2]; [10],6.8 Gy
same,"Cumulative absorbed dose, Pancreas",[2]; [10],32 Gy
same,"Cumulative absorbed dose, Tumor",[2]; [10],68 Gy
same,"Cumulative absorbed dose, Kidney",[2]; [11],10 Gy
same,"Cumulative absorbed dose, Pancreas",[2]; [11],64 Gy
same,"Cumulative absorbed dose, Tumor",[2]; [11],137 Gy

# — patent publication US20220008566A1, “Pharmaceutical Composition Comprising a Radiolabeled GRPR Antagonist and a Surfactant” (Advanced Accelerator Applications International SA, priority 2018, published 2022)
